Reference: publication PMC5624897, “Identification of isoliquiritigenin as an activator that stimulates the enzymatic production of glycyrrhetinic acid monoglucuronide” (Scientific Reports, 2017)

Tested on: T1, β-glucuronidase from P. purpurogenum Li-3 (PGUS)
T1 construct: native enzyme from mycelia of the fungus grown on GL; crude extract for kinetics, or ammonium sulfate and DEAE-cellulose
Assay: HPLC of GAMG formed; double reciprocal plot
Format: biochemical, Talaromyces purpureogenus
Conditions: control without ISL; crude β-glucuronidase solution, 2 h, 40 °C, sodium acetate buffer pH 5.0
Text: HPLC of GAMG formed; double reciprocal plot on β-glucuronidase from P. purpurogenum Li-3 (PGUS)

**Q.** For `CC1(C)[C@@H](O[C@H]2O[C@H](C(=O)O)[C@@H](O)[C@H](O)[C@H]2O[C@@H]2O[C@H](C(=O)O)[C@@H](O)[C@H](O)[C@H]2O)CC[C@]2(C)[C@H]3C(=O)C=C4[C@@H]5C[C@@](C)(C(=O)O)CC[C@]5(C)CC[C@@]4(C)[C@]3(C)CC[C@@H]12` [GL, glycyrrhizin], which K m is on record?
**A.** 410 µM
